From patent US11512079B2, “Heterocycle substituted pyridine derivative antifungal agents” (Amplyx Pharmaceuticals, Inc., priority 2017, dated 2022)
In brackets after ≈: the same amount, converted by molar mass.

Legend:
Assay type in all cases: cell-based
[1] = system: Cryptococcus neoformans H99; experiment: In vitro antifungal assay (Example IX), microdilution broth, MIC; conditions: minimum inhibitory concentration (≥50% inhibition), 35° C., 72 h, RPMI1640
Method in brief: (§1)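 CLSI broth microdilution in RPMI1640 with 2.5×10^3 cells/mL and final compound concentrations of 2-0.0019 μg/mL (1% DMSO). C. albicans 90028 plates were incubated at 35° C. for 40-48 h and C. neoformans H99 for 72 h. MIC was read as minimum inhibitory concentration, verified at 600 nm.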

Candida albicans 90028 = experiment: as above; conditions: minimum inhibitory concentration (≥50% inhibition), 35° C., 40-48 h, RPMI1640
Method in brief: as §1

Cryptococcus gattii = experiment: as above; conditions: minimum inhibitory concentration (≥50% inhibition), 35° C., 72 h (Cryptococcus), RPMI1640
Method in brief: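 Broth microdilution in RPMI1640 with 2.5×10^3 cells/mL inoculum; final compound concentrations were 2–0.0019 μg/mL, with 1% DMSO. Cryptococcus plates were incubated at 35 °C for 72 h, and growth was read at 600 nm to give the MIC.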

[2] = system: Rhizomucor pusillus 46342; experiment: In vitro antifungal assay (Example IX), microdilution broth, MEC; conditions: minimum effective concentration (shortening of hyphae), 35° C., 40-48 h, RPMI1640
Method in brief: (§2)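 Spore suspensions of A. fumigatus and R. pusillus adjusted to 1-2×10^4 spores/mL in RPMI1640 and exposed to compound dilutions prepared in DMSO, by broth microdilution. MEC taken as the lowest concentration shortening hyphae versus DMSO control wells, read as for echinocandins.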

[3] = system: Aspergillus fumigatus MYA3626; experiment: as above; conditions: minimum effective concentration (shortening of hyphae), 35° C., 40-48 h, RPMI1640
Method in brief: as §2

Structure (SMILES) | MIC [1] [µg/mL] | MIC (Candida albicans 90028) [µg/mL] | MIC (Cryptococcus gattii) [µg/mL] | minimal effective concentration [2] [µg/mL] | minimal effective concentration [3] [µg/mL]
Nc1ncccc1-c1cc(Cc2ccc(Nc3ccc(F)c(F)c3F)nc2)no1 [compound 245, 5-((5-(2-aminopyridin-3-yl)isoxazol-3-yl)methyl)-N-(2,3,4-trifluorophenyl)pyridin-2-amine] | 0.1 to 1 (≈ 0.252 to 2.52 µM) | 0.1 to 1 (≈ 0.252 to 2.52 µM) | 0.1 to 1 (≈ 0.252 to 2.52 µM) | > 1 | 0.1 to 1
Nc1ncccc1-c1cc(Cc2ccc(Oc3ccc(F)cn3)cc2)no1 [compound 246, 3-(3-(4-((5-fluoropyridin-2-yl)oxy)benzyl)isoxazol-5-yl)pyridin-2-amine] | 0.01 to 0.1 (≈ 0.0276 to 0.276 µM) | 0.1 to 1 (≈ 0.276 to 2.76 µM) | 0.1 to 1 (≈ 0.276 to 2.76 µM) | 0.1 to 1 | 0.01 to 0.1
Nc1ncccc1-c1cc(Cc2cnc(Nc3ccccc3F)c(F)c2)no1 [compound 250, 5-((5-(2-aminopyridin-3-yl)isoxazol-3-yl)methyl)-3-fluoro-N-(2-fluorophenyl)pyridin-2-amine] | 0.01 to 0.1 (≈ 0.0264 to 0.264 µM) | 0.01 to 0.1 (≈ 0.0264 to 0.264 µM) | 0.1 to 1 (≈ 0.264 to 2.64 µM) | 0.1 to 1 | 0.01 to 0.1
Nc1ncccc1-c1cc(Cc2cnc(Nc3c(F)cccc3F)c(F)c2)no1 [compound 253, 5-((5-(2-aminopyridin-3-yl)isoxazol-3-yl)methyl)-N-(2,6-difluorophenyl)-3-fluoropyridin-2-amine] | 0.1 to 1 (≈ 0.252 to 2.52 µM) | 0.1 to 1 (≈ 0.252 to 2.52 µM) | 0.1 to 1 (≈ 0.252 to 2.52 µM) | > 1 | 0.1 to 1
Nc1ncccc1-c1cc(Cc2cnc(OCc3ccccc3)c(F)c2)no1 [compound 257, 3-(3-((6-(benzyloxy)-5-fluoropyridin-3-yl)methyl)isoxazol-5-yl)pyridin-2-amine] | 0.1 to 1 (≈ 0.266 to 2.66 µM) | 0.01 to 0.1 (≈ 0.0266 to 0.266 µM) | > 1 | 0.1 to 1 | 0.01 to 0.1

Now from value to molecule, other results behind:

MIC [1] [µg/mL] | MIC (Candida albicans 90028) [µg/mL] | MIC (Cryptococcus gattii) [µg/mL] | Structure (SMILES) | minimal effective concentration [2] [µg/mL] | minimal effective concentration [3] [µg/mL]
0.01 to 0.1 (≈ 0.0263 to 0.263 µM) | 0.1 to 1 (≈ 0.263 to 2.63 µM) | 0.1 to 1 (≈ 0.263 to 2.63 µM) | Nc1ncccc1-c1cc(Cc2ccc(Oc3cccc(F)n3)c(F)c2)no1 [compound 258, 3-(3-(3-fluoro-4-((6-fluoropyridin-2-yl)oxy)benzyl)isoxazol-5-yl)pyridin-2-amine] | 0.1 to 1 | 0.01 to 0.1
0.1 to 1 (≈ 0.264 to 2.64 µM) | 0.1 to 1 (≈ 0.264 to 2.64 µM) | 0.1 to 1 (≈ 0.264 to 2.64 µM) | Nc1ncccc1-c1cc(Cc2ccc(Cc3cc(F)nc(F)c3)cc2)no1 [compound 261, 3-(3-(4-((2,6-difluoropyridin-4-yl)methyl)benzyl)isoxazol-5-yl)pyridin-2-amine] | 0.1 to 1 | 0.1 to 1
